In patent US20050272040A1, “Method for increasing synaptic growth or plasticity” (priority 2002, published 2005):

Test system: individual hippocampal cells
Experiment: Single-cell Arc expression (aRNA amplification, real-time RT-PCR) after patch-clamp
Type: cell-based, rat
Details: BDNF-treated cells, electrophysiologic responders (n=7) vs non-responders (n=9), p<0.05
Experimental: FIG. 1A presents Arc expression in individual BDNF-treated cells following electrophysiological recordings and aRNA amplification. Arc transcription was measured by real-time RT-PCR and then normalized to internal GAPDH levels. The data are then expressed as a ratio of the average Arc expression in the seven control cells (expression ratio). FIG. 1B presents a correlation of Arc expression ratios to individual cell's synaptic BDNF responses. Average synaptic charge 3 to 5 minutes post-BDNF exposure expressed as a fold increase over baseline (−2 to 0 minute) was plotted against Arc expression ratios shown in FIG. 1A. Each circle represents one BDNF-treated cell. The cell number next to the circle corresponds with the cell number in FIG. 1A. Dashed line depicts a correlation coefficient indicating significance (r=0.66., p<0.005). The data are categorized into two groups of BDNF-treated cells: a cluster of non-responders (shaded) and a spread of responders (clear).
The molecular genetics of differential synaptic responses to BDNF was examined by performing single-cell transcriptional analysis after whole-cell patch-clamp. […] FIG. 1A represents Arc expression in cells exposed to BDNF relative to the average Arc expression in cells not exposed to BDNF (control) as assessed by real-time RT-PCR (expression ratio). […]

With “BDNF: neurotrophin, 50 ng/ml, Preprotech; induces synaptic plasticity in hippocampal neurons” the “Increase in Arc expression, responders relative to non-responders” value was 17 fold.
